The target in this assay is T1, GSK3β (Homo sapiens, UniProt P49841).
T1 construct: gene GSK3B
The assay is described as follows: Kinase-Glo Plus luminescent enzymatic assay, […] ATP. The assay is classed as biochemical. Background: Kinase-Glo reads ATP consumption through a luciferase reaction.

T1 sequence (P49841 whole entry): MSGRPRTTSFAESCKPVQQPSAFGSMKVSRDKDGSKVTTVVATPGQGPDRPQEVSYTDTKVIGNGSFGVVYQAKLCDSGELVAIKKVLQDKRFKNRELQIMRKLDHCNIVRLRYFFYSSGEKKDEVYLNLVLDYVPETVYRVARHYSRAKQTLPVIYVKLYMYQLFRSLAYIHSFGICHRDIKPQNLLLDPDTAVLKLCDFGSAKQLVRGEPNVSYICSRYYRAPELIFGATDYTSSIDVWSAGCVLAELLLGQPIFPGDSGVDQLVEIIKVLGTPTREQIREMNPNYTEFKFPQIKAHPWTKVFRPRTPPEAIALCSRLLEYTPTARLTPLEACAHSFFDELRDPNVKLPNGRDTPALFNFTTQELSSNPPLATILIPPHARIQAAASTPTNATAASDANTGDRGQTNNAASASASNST

The term IC50 denotes the concentration that inhibits the measured activity by half. On to kushenol F [MOL006617], for which the IC50 is 4.96 ± 1.29 µM.

Values taken from PMC13358776, “Discovery of Two GSK3β Inhibitors from Sophora flavescens Ait. using Structure-based Virtual Screening and Bioactivity Evaluation” (Current Computer-Aided Drug Design, 2024).
